Results published in BigSolDB 2.1.

Conditions: in ethyl acetate

CCCCCOC(=O)Nc1nc(=O)n([C@@H]2O[C@H](C)[C@@H](O)[C@H]2O)cc1F
Conditions	solubility (mole fraction)
278.15 K	0.003
283.15 K	0.0039
288.15 K	0.0052
293.15 K	0.00678
298.15 K	0.00919
303.15 K	0.0112
308.15 K	0.0149
313.15 K	0.019
318.15 K	0.0237
323.15 K	0.0301
